The supplement of paper PMC11208160

assay: recombinant barcode read abundance after kanamycin selection (control-corrected) (log10(CPM+1)); higher = more efficient recombination; sequences stand for … in AGTGCAGAGAAAATCGGCCAGTTTTCTCTGCCTGCAGTCCGCATGCCGT…AGATTTATGCAGCGGACTGCCTTTCTCCCAAAGTGATAAACCGGACAGTATCATGGACCGGTTTTCCCGGTAATCCGTATTTGCAAGGTTGGTTTCACT; site = the 11-nt target
In short: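 The screen was pooled in E. coli and paired targets with IS621 bridge RNA target-binding loops. Recombination efficiency is taken from barcode counts per million at recombinant junctions, averaged and adjusted against the control. Values, in the form log10(CPM+1), come from duplicate plating on chloramphenicol/ampicillin LB agar or on chloramphenicol/ampicillin/kanamycin with 0.1 mM IPTG.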
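Further: IS621 recombinase and bridge RNA in Escherichia coli cells.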

Point of comparison: “TACAAGACTTGGGTTCTAACCTGTTGCGT (site TACAAGACTAC)”, “recombinant barcode read abundance (log10)” value 1.36. Against it:
- TAAATAGCTTGGGTTCTAACCTGTTGCCT (site TAAATAGCTAG) — lower, 0.881
- TAAATAGCTTGGGTTCTAACCTGTTGCCT (site TAATTAGCTAG) — lower, 0.243
- TAAATCCCTTGGGTTCTAACCTGTTGCGA (site ACGGAATCTCG) — lower, 0.0648
- TAAATCCCTTGGGTTCTAACCTGTTGCGA (site TAAATCCCTTC) — within 0.2 log units, 1.22
- TAACATACTTGGGTTCTAACCTGTTGCAT (site TAACATACTAT) — within 0.2 log units, 1.22
- TAACATACTTGGGTTCTAACCTGTTGCAT (site TAACCTACTAT) — lower, 0.139
- TAACATACTTGGGTTCTAACCTGTTGCAT (site TAACGTACTAT) — lower, 0.233
- TAACATACTTGGGTTCTAACCTGTTGCAT (site TAACTTACTAT) — lower, 0.0391
- TAACCATCTTGGGTTCTAACCTGTTGCCT (site TAACCATCTAG) — lower, 0.266
- TAACCATCTTGGGTTCTAACCTGTTGCCT (site TACCCATCTAG) — lower, 0.0574
- TAACCATCTTGGGTTCTAACCTGTTGCCT (site TAGCCATCTAG) — lower, 0.0156
- TAACCATCTTGGGTTCTAACCTGTTGCCT (site TATCCATCTAG) — lower, 0.0811
- TAACCTGCTTGGGTTCTAACCTGTTGCCT (site TAACCTACTAG) — lower, 0.532
- TAACCTGCTTGGGTTCTAACCTGTTGCCT (site TAACCTCCTAG) — lower, 0.0336
- TAACCTGCTTGGGTTCTAACCTGTTGCCT (site TAACCTGCTAG) — lower, 0.889
- TAACCTGCTTGGGTTCTAACCTGTTGCCT (site TAACCTTCTAG) — lower, 0.624
- TAACCTTCTTGGGTTCTAACCTGTTGCCT (site TAACCTACTAG) — lower, 0
- TAACCTTCTTGGGTTCTAACCTGTTGCCT (site TAACCTCCTAG) — lower, 0.019
- TAACCTTCTTGGGTTCTAACCTGTTGCCT (site TAACCTGCTAG) — lower, 0.00987
- TAACCTTCTTGGGTTCTAACCTGTTGCCT (site TAACCTTCTAG) — lower, 0.472
- TAAGACCCTTGGGTTCTAACCTGTTGCCT (site TAAGACCCTAG) — higher, 2.33
- TAAGACCCTTGGGTTCTAACCTGTTGCCT (site TCAGACCCTAG) — lower, 0.454
- TAAGACGCTTGGGTTCTAACCTGTTGCCT (site TAAGACGCTAG) — higher, 2.33
- TAAGACGCTTGGGTTCTAACCTGTTGCCT (site TACGACGCTAG) — lower, 0.0565
- TAAGACGCTTGGGTTCTAACCTGTTGCCT (site TAGGACGCTAG) — lower, 0.729
- TAAGACGCTTGGGTTCTAACCTGTTGCCT (site TATGACGCTAG) — lower, 1.05
- TAAGGTCCTTGGGTTCTAACCTGTTGCTT (site AGGTCAACTCG) — lower, 0.224
- TAAGGTCCTTGGGTTCTAACCTGTTGCTT (site TAAGGTCCTAA) — within 0.2 log units, 1.49
- TAAGTACCTTGGGTTCTAACCTGTTGCCT (site AAAGTACCTAG) — lower, 1.12
- TAAGTACCTTGGGTTCTAACCTGTTGCCT (site CAAGTACCTAG) — lower, 0.517
- TAAGTACCTTGGGTTCTAACCTGTTGCCT (site GAAGTACCTAG) — lower, 0.029
- TAAGTACCTTGGGTTCTAACCTGTTGCCT (site TAAGTACCTAG) — higher, 1.88
- TAATATTCTTGGGTTCTAACCTGTTGCCT (site TAATATTCTAG) — lower, 0.0128
- TAATATTCTTGGGTTCTAACCTGTTGCCT (site TAGGATTCTAG) — lower, 0.041
- TAATCCTCTTGGGTTCTAACCTGTTGCCT (site AAATCCTCTAG) — lower, 0.984
- TAATCCTCTTGGGTTCTAACCTGTTGCCT (site CAATCCTCTAG) — lower, 0.0292
- TAATCCTCTTGGGTTCTAACCTGTTGCCT (site GAATCCTCTAG) — lower, 0.0754
- TAATCCTCTTGGGTTCTAACCTGTTGCCT (site TAATCCTCTAG) — within 0.2 log units, 1.3
- TAATCGACTTGGGTTCTAACCTGTTGCCT (site TAATCGACTAG) — lower, 0.102
- TAATCGACTTGGGTTCTAACCTGTTGCCT (site TAATCGCCTAG) — lower, 0.643
- TAATCGACTTGGGTTCTAACCTGTTGCCT (site TAATCGGCTAG) — lower, 0
- TAATCGACTTGGGTTCTAACCTGTTGCCT (site TAATCGTCTAG) — lower, 0.0431
- TAATGGCCTTGGGTTCTAACCTGTTGCGA (site ATGAACACTCA) — lower, 0.0388
- TAATGGCCTTGGGTTCTAACCTGTTGCGA (site TAATGGCCTTC) — lower, 0.942
- TAATGTACTTGGGTTCTAACCTGTTGCCT (site TAATGAACTAG) — lower, 0.125
- TAATGTACTTGGGTTCTAACCTGTTGCCT (site TAATGTACTAG) — lower, 0.556
- TAATTAGCTTGGGTTCTAACCTGTTGCCT (site TAAATAGCTAG) — lower, 0.0142
- TAATTAGCTTGGGTTCTAACCTGTTGCCT (site TAATTAGCTAG) — lower, 0.435
- TACAAGACTTGGGTTCTAACCTGTTGCGT (site GGACCCTCTGT) — lower, 0.168
- TACAAGTCTTGGGTTCTAACCTGTTGCCT (site CTACGACCTCC) — lower, 0.289
- TACAAGTCTTGGGTTCTAACCTGTTGCCT (site TACAAGTCTAG) — lower, 0.625
- TACAGACCTTGGGTTCTAACCTGTTGCCT (site AACAGACCTAG) — lower, 0.11
- TACAGACCTTGGGTTCTAACCTGTTGCCT (site CACAGACCTAG) — lower, 0.197
- TACAGACCTTGGGTTCTAACCTGTTGCCT (site GACAGACCTAG) — lower, 0.065
- TACAGACCTTGGGTTCTAACCTGTTGCCT (site TACAGACCTAG) — lower, 1.11
- TACAGCTCTTGGGTTCTAACCTGTTGCTT (site TACAGCTCTAA) — lower, 0.016
- TACAGCTCTTGGGTTCTAACCTGTTGCTT (site TACCGCTCTAA) — lower, 0.104
- TACAGCTCTTGGGTTCTAACCTGTTGCTT (site TACGGCTCTAA) — lower, 0.0374
